According to DBAASP:
≈ marks a conversion by molar mass, not a printed value. Where “and” joins values, the source holds several entries; their conditions need not be identical. Equal entries are not always repeated.

Assays:
Test in all cases: ≥ marks a high value that may be exact or a test limit, other limits are often not marked, values filed in µg/mL are converted to µM
[1] = system: Acinetobacter baumannii MTCC 9829
[2] = system: Alcaligenes faecalis MTCC 1937
[3] = system: Alkalihalobacillus alcalophilus MTCC 860
[4] = system: Bordetella bronchiseptica MTCC 6837
[5] = system: Citrobacter freundii MTCC 1658
[6] = system: Citrobacter koseri MTCC 1657
[7] = system: Corynebacterium glutamicum MTCC 2679
[8] = system: Enterococcus faecalis MTCC 439
[9] = system: Escherichia coli K12 MG1655
[10] = system: Haemophilus influenzae MTCC 621
[11] = system: Klebsiella aerogenes MTCC 111
[12] = system: Klebsiella oxytoca MTCC 2275
[13] = system: Klebsiella pneumoniae MTCC 7407
[14] = system: Pluralibacter gergoviae MTCC 3826
[15] = system: Proteus mirabilis MTCC 3158
[16] = system: Proteus vulgaris MTCC 1771
[17] = system: Pseudomonas aeruginosa MTCC 3542
[18] = system: Salmonella enterica MTCC 9844
[19] = system: Salmonella enterica subsp. enterica serovar Typhimurium ATCC 14028
[20] = system: Shigella boydii MTCC 11947
[21] = system: Shigella flexneri MTCC 1457
[22] = system: Staphylococcus aureus MTCC 3160
[23] = system: Staphylococcus haemolyticus MTCC 3383
[24] = system: Stenotrophomonas maltophilia MTCC 1890
[25] = system: Vibrio cholerae MTCC 3904
[26] = system: Batrachochytrium dendrobatidis
[27] = system: Candida albicans ATCC 90028
[28] = system: Escherichia coli ATCC 25922
[29] = system: Staphylococcus aureus NCTC 8325
Acinetobacter baumannii = system: Acinetobacter baumannii
Escherichia coli K88 = system: Escherichia coli K88
Escherichia coli K99 = system: Escherichia coli K99
Escherichia coli UB1005 = system: Escherichia coli UB1005
Escherichia coli = system: Escherichia coli
Klebsiella pneumoniae = system: Klebsiella pneumoniae
[30] = system: Pseudomonas aeruginosa ATCC 27853
[31] = system: Pseudomonas aeruginosa CICC 21625
[32] = system: Pseudomonas aeruginosa CICC 21630
[33] = system: Pseudomonas aeruginosa PAO1
Pseudomonas aeruginosa = system: Pseudomonas aeruginosa
[34] = system: Salmonella enterica subsp. enterica serovar Pullorum C79-13
[35] = system: Salmonella enterica subsp. enterica serovar Typhimurium C77-31

MIC [28] | SMILES | MIC [1] | MIC [2] | MIC [3] | MIC [4] | MIC [5] | MIC [6] | MIC [7] | MIC [8] | MIC [9] | MIC [10] | MIC [11] | MIC [12] | MIC [13] | MIC [14] | MIC [15] | MIC [16] | MIC [17] | MIC [18] | MIC [19] | further results
140 µM (≈ 196 µg/mL) | CC[C@H](C)[C@H](NC(=O)[C@H](CC(C)C)NC(=O)[C@@H]1CCCN1C(=O)[C@H](CC(C)C)NC(=O)[C@@H](N)Cc1ccccc1)C(=O)NCC(=O)N[C@@H](CCCCN)C(=O)N[C@H](C(=O)N[C@@H](CC(C)C)C(=O)NCC(=O)N[C@H](C(=O)N[C@H](C(=O)N[C@@H](CC(C)C)C(N)=O)[C@@H](C)CC)[C@@H](C)O)[C@@H](C)CC [FLPLIGKILGTIL] |  |  |  |  |  |  |  |  |  |  |  |  |  |  |  |  |  |  |  | MIC [26]: ≥ 50 µM and 25 µM; MIC [27]: ≥ 150 µM; MIC [29]: 5 µM (≈ 6.98 µg/mL)
2 µM (≈ 4.55 µg/mL) | CC(C)C[C@H](NC(=O)[C@@H]1CCCN1C(=O)[C@H](CCCCN)NC(=O)[C@H](CC(C)C)NC(=O)[C@H](CC(C)C)NC(=O)[C@@H]1CCCN1C(=O)[C@H](CCCCN)NC(=O)[C@H](CC(C)C)NC(=O)[C@H](CC(C)C)NC(=O)[C@@H]1CCCN1C(=O)[C@H](CCCCN)NC(=O)[C@H](CC(C)C)NC(=O)[C@H](CC(C)C)NC(=O)[C@@H]1CCCN1C(=O)[C@H](CCCCN)NC(=O)[C@H](CC(C)C)NC(=O)[C@H](CC(C)C)NC(=O)[C@@H]1CCCN1C(=O)[C@H](CCCCN)NC(=O)[C@@H](N)CC(C)C)C(N)=O [LKPLLKPLLKPLLKPLLKPL] |  |  |  |  |  |  |  |  |  |  |  |  |  |  |  |  |  |  | 8 µM (≈ 18.2 µg/mL) | MIC (Acinetobacter baumannii): 4 µM (≈ 9.1 µg/mL); MIC (Escherichia coli K88): 2 µM (≈ 4.55 µg/mL); MIC (Escherichia coli K99): 2 µM (≈ 4.55 µg/mL); MIC (Escherichia coli UB1005): 2 µM (≈ 4.55 µg/mL); MIC (Escherichia coli): 4 µM (≈ 9.1 µg/mL); MIC (Klebsiella pneumoniae): 32 µM (≈ 72.8 µg/mL); MIC [30]: 16 µM (≈ 36.4 µg/mL); MIC [31]: ≥ 64 µM; MIC [32]: ≥ 32 µM; MIC [33]: > 64 µM; MIC (Pseudomonas aeruginosa): 32 µM (≈ 72.8 µg/mL); MIC [34]: 4 µM (≈ 9.1 µg/mL); MIC [35]: 16 µM (≈ 36.4 µg/mL)
13 µM (≈ 38.3 µg/mL) | CC[C@H](C)[C@@H]1NC(=O)[C@H](CCCCN)NC(=O)[C@@H](NC(=O)[C@H](CCCCN)NC(=O)[C@H](CC(C)C)NC(=O)[C@H](CCCCN)NC(=O)[C@H](CC(=O)O)NC(=O)[C@H](CC(C)C)NC(=O)[C@H](CCSC)NC(=O)[C@H](Cc2cnc[nH]2)NC(=O)CNC(=O)[C@H](C)NC(=O)[C@H](CC(C)C)NC(=O)[C@H](CC(N)=O)NC(=O)[C@H](CCCCN)NC(=O)[C@H](C)NC(=O)[C@@H](NC(=O)[C@H](CC(N)=O)NC(=O)[C@H](CCCCN)NC(=O)[C@@H](NC(=O)[C@@H](NC(=O)[C@H](CC(=O)O)NC(=O)[C@H](CCSC)NC(=O)[C@@H](N)CC(C)C)[C@@H](C)O)C(C)C)C(C)C)CSSC[C@@H](C(=O)O)NC(=O)CNC(=O)[C@H]([C@@H](C)O)NC1=O [LMDTVKNVAKNLAGHMLDKLKCKITGC] |  |  |  |  |  |  |  |  |  |  |  |  |  |  |  |  |  |  |  | MIC [26]: ≥ 100 µM; MIC [27]: ≥ 67 µM; MIC [29]: ≥ 50 µM

More lines, now with the values behind:

SMILES | MIC [28] | MIC [1] | MIC [2] | MIC [3] | MIC [4] | MIC [5] | MIC [6] | MIC [7] | MIC [8] | MIC [9] | MIC [10] | MIC [11] | MIC [12] | MIC [13] | MIC [14] | MIC [15] | MIC [16] | MIC [17] | MIC [18] | MIC [19] | further results
CC(C)C[C@H](NC(=O)[C@H](CCCCN)NC(=O)CNC(=O)[C@H](C)NC(=O)[C@H](CCCN=C(N)N)NC(=O)[C@H](CO)NC(=O)[C@@H](N)CCC(=O)O)C(=O)N[C@@H](C)C(=O)N[C@@H](C)C(=O)N[C@@H](CCCCN)C(=O)N[C@@H](C)C(=O)N[C@@H](C)C(=O)N[C@@H](Cc1ccccc1)C(=O)N[C@@H](CCCCN)C(=O)N[C@@H](C)C(=O)N[C@@H](C)C(=O)N[C@@H](CCCCN)C(=O)N[C@@H](CCCN=C(N)N)C(=O)O [ESRAGKLAAKAAFKAAKR] |  | ≥ 68.3 µM | ≥ 68.3 µM | ≥ 68.3 µM | ≥ 68.3 µM | ≥ 68.3 µM | ≥ 68.3 µM | ≥ 68.3 µM | ≥ 68.3 µM | ≥ 68.3 µM | ≥ 68.3 µM | ≥ 68.3 µM | ≥ 68.3 µM | ≥ 68.3 µM | ≥ 68.3 µM | ≥ 68.3 µM | ≥ 68.3 µM | ≥ 68.3 µM | ≥ 68.3 µM | > 68.3 µM | MIC [20]: ≥ 68.3 µM; MIC [21]: ≥ 68.3 µM; MIC [22]: ≥ 68.3 µM; MIC [23]: ≥ 68.3 µM; MIC [24]: ≥ 68.3 µM; MIC [25]: ≥ 68.3 µM
CC(C)C[C@H](NC(=O)[C@H](Cc1cnc[nH]1)NC(=O)[C@H](CCCN=C(N)N)NC(=O)[C@H](CC(C)C)NC(=O)[C@H](CCCN=C(N)N)NC(=O)[C@H](CCC(N)=O)NC(=O)[C@@H](NC(=O)[C@H](C)NC(=O)[C@H](CCCN=C(N)N)NC(=O)[C@H](CCCN=C(N)N)NC(=O)[C@H](C)NC(=O)[C@@H](NC(=O)[C@H](CCCN=C(N)N)NC(=O)[C@H](Cc1c[nH]c2ccccc12)NC(=O)[C@@H](N)CCC(=O)O)C(C)C)C(C)C)C(=O)N[C@@H](C)C(=O)N[C@@H](CCCN=C(N)N)C(=O)N[C@@H](CCCN=C(N)N)C(=O)N[C@@H](Cc1ccc(O)cc1)C(=O)N[C@@H](Cc1cnc[nH]1)C(=O)O [EWRVARRAVQRLRHLARRYH] |  | 6.08 µM (≈ 16 µg/mL) | ≥ 48.7 µM | 6.08 µM (≈ 16 µg/mL) | 0.76 µM (≈ 2 µg/mL) | 24.3 µM (≈ 64 µg/mL) | 6.08 µM (≈ 16 µg/mL) | 0.38 µM (≈ 1 µg/mL) | ≥ 48.7 µM | 6.08 µM (≈ 16 µg/mL) | 3.04 µM (≈ 8 µg/mL) | ≥ 48.7 µM | 3.04 µM (≈ 8 µg/mL) | ≥ 48.7 µM | ≥ 48.7 µM | ≥ 48.7 µM | ≥ 48.7 µM | ≥ 48.7 µM | 6.08 µM (≈ 16 µg/mL) | 6.08 µM (≈ 16 µg/mL) | MIC [20]: 3.04 µM (≈ 8 µg/mL); MIC [21]: 0.38 µM (≈ 1 µg/mL); MIC [22]: ≥ 48.7 µM; MIC [23]: 6.08 µM (≈ 16 µg/mL); MIC [24]: 24.3 µM (≈ 64 µg/mL); MIC [25]: ≥ 48.7 µM
